{"source": "patent US20230355508A1", "about": "“TREATING NEUROPATHIC PAIN IN SPINAL CORD INJURED INDIVIDUALS” (CNS Biosciences, Inc., priority 2016, published 2023)", "origin": "cited, not measured here", "tested_on": "neuropathic pain following spinal cord injury", "conditions": "Finnerup et al., Scandinavian Journal of Pain 2009; for relief of neuropathic pain following spinal cord injury: patients with neuropathic pain following SCI", "note": "Like-named read-outs stand apart in the source and are kept apart here."}
{"smiles": "CC[C@@H](C(N)=O)N1CCCC1=O", "note": "(single isomer, unassigned) [levetiracetam]", "values": [{"measurement": "relief of spasm severity following spinal cord injury", "setting": "patients with SCI", "value": "does not relieve"}, {"measurement": "relief of neuropathic pain following spinal cord injury", "value": "does not relieve"}, {"measurement": "relief of neuropathic pain following spinal cord injury", "setting": "listed as Levetiracetam", "value": "no analgesic or other benefit"}]}
